# Measurements from patent US20010049373A1, “Materials and methods for killing nematodes and nematode eggs” (priority 2000, published 2001).
# Test system: Caenorhabditis elegans
# Test: C. elegans L1 larvae dose-response, 5 day visual viability score (Examples 2 and 7)
# Assay type: in vivo
# Set-up: key: Dead: only stiff L1s (no movement); Dead (L4): worms are dead, but at a later larval stage; majority of worms are L1 (based on size); majority of worms are L2 (based on size); majority of worms are L3 (based on size); majority of worms are L4 (based on size); AD: majority of worms are adult; #AD: 5 adult worms or less; B!: sterile (0-25 progeny); B: low broodsize (25-100 progeny); ˜B: moderate broodsize (100-250 progeny); <: reduced broodsize (250-500 progeny); OK: no effect (˜1000+ progeny)
# Conditions: day 5, Table 3
# Method in brief: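 Twenty L1 larvae per well in NGM with E. coli HB101 were exposed to six 3-fold dilutions from 70 μM to 0.3 μM, 1.4% DMSO final, at 20° C. Day-5 viability was scored visually under a dissecting microscope by developmental stage, adult count and brood size.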
structure (smiles),measurement,setting,value
CCC1CCCCN1c1cc(Oc2ccc3oc4ccccc4c3c2)ncn1 (stereo not drawn) [AKC 109],5 Day Visual Score V6,0.3 μM (procedure of Example 2),B (low broodsize (25-100 progeny))
same,5 Day Visual Score V2,23.3 μM (procedure of Example 2),L1
same,5 Day Visual Score V1,70 μM (procedure of Example 2),L1
